pIC50: −log10 of the molar value.
Key:
Assay type in all cases: cell-based
3T3EGFR [1] = assay: BrdU incorporation assay, 3T3EGFR, PDGF
C6 cells = assay: Growth of C6 cells (SRB); conditions: Rattus norvegicus, 2%
Excerpt: The assay is the same as the assay set forth in EXAMPLE 10, except that C6 cells (ATCC 107) are used instead of A431 cells.
Compound of formula VI inhibited the growth rate of C6 cells as illustrated in Table 11.

[2] = molecular target: T1, chimeric receptor containing the EGFR extracellular domain and intracellular HER2 kinase domain (Homo sapiens, UniProt P04626); assay: EGF receptor-HER2 phosphorylation assay in whole EGFR-NIH3T3 cells (ELISA); conditions: NIH3T3 cells with chimeric receptor, EGF stimulation
T1 construct: P00533 (Epidermal growth factor receptor)
Description: HER2 kinase activity in whole EGFR-NIH3T3 cells was measured as described below. 1. Coat ELISA plates (Corning, 96 well, Cat. #25805-96) with 05-101 antibody at 0.5 µg per well in PBS, 100 μL final volume/well, and store overnight at 4° C. Coated plates are good for up to 10 days when stored at 4° C. 1. An NIH3T3 cell line overexpressing a chimeric receptor containing the EGFR extracellular domain and intracellular HER2 kinase domain can be used for this assay. 3. Resuspend cells in seeding medium (DMEM, 0.5% bovine serum), and count the cells using trypan blue. Viability above 90% is acceptable. Seed cells in DMEM medium (0.5% bovine serum) at a density of 10,000 cells per well, 100 μL per well, in a 96 well microtiter plate. Incubate seeded cells in 5% CO2 at 37° C. for about 40 hours. 1. Check seeded cells for contamination using an inverted microscope. […] The maximum phosphotyrosine signal is determined by subtracting the value of the negative controls from the positive controls. The percent inbibitation of phosphotyrosine content for extract-containing wells is then calculated, after subtraction of the negative controls. The IC50 values measured in the EGF receptor-HER2 phosphorylation assay for the compound of formula VI are depicted in Table 6: […]

3T3EGFR [3] = assay: BrdU incorporation assay, 3T3EGFR, EGF
A431 cells = assay: Growth of A431 cells (SRB); conditions: Homo sapiens, A-431, 72 h, 2% calf serum, 3 days
Description: The following assay measures growth rates for A43 1 cells.
2% calf serum/DMEM+2 mM glutamine, Pen/Strep
2. Dilute cells in growth medium to 60,000 cell/mL. Transfer 100 μL of cells to each well in a 96-well flat bottom plate to give 6000 cells/well.
1. In a 96-well round bottom plate, add 120 μL of growth medium containing 2×final % DMSO found in highest screening concentration of compound to columns 1 to 11. For example, if the highest concentration is […], ad this is made from a 100 mM stock, 1×DMSO is 0.1%, so 2×DMSO is 0.2%. This plate is used to titrate out the compound, 4 rows per compound.
2. In a sterile 15 mL tube, make a 2×solution of the highest screening concentration of compound in growth medium plus 2×DMSO. 1 mL per cell line is needed. The starting concentration of the compound is usually 100 μM but this concentration may vary depending upon the solubility of the compound.
3. Transfer 240 μL of the 2×starting compound solution to qudruplicate wells in column 12 of the 96-well round bottom plate. Do 1:2 serial dilutions across the plate from right to left by transferring […] from column 12 to column 11, column 11 to 10 and so on through column 2. […]
6. Read plates on Dynatech ELISA Plate REader at 570 nm with reference at 630 nm. […]

SKOV3 cells = assay: Growth of SKOV3 cells (SRB); conditions: Homo sapiens, SK-OV-3, 2%
Excerpt: The assay is the same as the assay set forth in EXAMPLE 10, except that SKOV3 cells (ATCC HTB77) are used instead of A431 cells.
Compound of formula VI inhibited the growth rate of SKOV3 cells as illustrated in Table 10.

T1 sequence (P04626 720-987 limits assumed, change not shown): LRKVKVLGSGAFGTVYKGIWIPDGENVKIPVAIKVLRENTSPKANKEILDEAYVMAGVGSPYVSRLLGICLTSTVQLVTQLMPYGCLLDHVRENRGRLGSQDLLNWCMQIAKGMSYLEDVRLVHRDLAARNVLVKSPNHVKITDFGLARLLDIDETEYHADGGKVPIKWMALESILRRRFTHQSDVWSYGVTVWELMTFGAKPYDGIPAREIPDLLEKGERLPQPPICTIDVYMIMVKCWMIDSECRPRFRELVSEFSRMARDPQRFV

pIC50 [2]: 5.06 | IC50 (A431 cells): 0.712 µM | IC50 (SKOV3 cells): 1.08 µM
Structure (SMILES): Cc1cc(/C=C2/C(=O)Nc3ccccc32)c(C)c2c1[nH]c1ccccc12 [VI]
IC50 (3T3EGFR [1]): 7 µM | IC50 (C6 cells): 1.55 µM | IC50 (3T3EGFR [3]): 7.03 µM
